Data taken from patent US20250236627A1, “CERTAIN OCTAHYDROFURO[3,4- B]PYRAZINES AS GLP-1 RECEPTOR MODULATORS” (ASTRAZENECA AB, priority 2021, published 2025).

What was measured:
human GLP-1R receptor = target: T1, human GLP-1R receptor (Homo sapiens, UniProt P43220, L260F); assay: CHOK1 GLP-1R cAMP Assay; assay type: cell-based; conditions: CHO-K1 cell line stably expressing human GLP-1R; HTRF cAMP detection
T1 construct: expressed in transfected cells; host or cells: CHO-K1 (ATCC CCL-61)
Summary of the method: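 CHO-K1 cells, 800/well, stimulated 20 min at room temperature with compound in HEPES pH 7.4/HBSS/0.1% BSA plus IBMX (1 mM in the added buffer). cAMP measured by HTRF competitive immunoassay after ≥1 h, converted to pM via standard curve. EC50 from 4-parameter logistic fit; % effect relative to saturating GLP1(7-36)NH2.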

[1] = target: T2, endogenous human glucagon-like peptide 1 receptor (GLP-1R) (Homo sapiens, UniProt P43220); assay: EndoC cAMP Accumulation Assay; assay type: cell-based; conditions: EndoC-βH1 human pancreatic β cell line; HTRF cAMP assay
T2 construct: endogenous human glucagon-like peptide 1 receptor (GLP-1R) in a pancreatic insulinoma cell line; host or cells: EndoC-βH1 human pancreatic β cell line
Summary of the method: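 Thawed EndoC-βH1 cells (3000 per well) were stimulated for 30 min at room temperature in HBSS/25 mM HEPES pH 7.4, 0.1% BSA and 0.5 mM IBMX. cAMP was measured by HTRF competitive immunoassay after 1 h. Responses were fitted by 4-parameter logistic as % activation relative to maximal GIP (82.5 nM), with basal cAMP as zero.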

[2] = target: T3, human phosphodiesterase-3A (Homo sapiens, UniProt Q14432); assay: PDE3 Assay; assay type: biochemical; conditions: human recombinant enzyme expressed in Sf9 cells; formation of 5′AMP from cAMP
T3 construct: host or cells: Sf9 cells
Procedure: Evaluation of the effects of compounds on the activity of the human phosphodiesterase-3A is quantified by measuring the formation of 5′AMP from cAMP using a human recombinant enzyme expressed in Sf9 cells.
The test compound, reference compound or water (control) are added to a buffer containing 40 mM Tris/HCl (pH 7.4) and 8 mM MgCl2, 450 nM cAMP and 0.25 μCi [^3H]cAMP.
Thereafter, the reaction is initiated by addition of the enzyme (about 1 U) and the mixture is incubated for 20 min at 22° C.
For basal control measurements, the enzyme is omitted from the reaction mixture.
Following incubation SPA beads are added. After 30 min at 22° C. under shaking, the amount of [^3H]5′AMP is quantified with a scintillation counter (Topcount, Packard).
The results are expressed as a percent inhibition of the control enzyme activity. The standard inhibitory reference compound is milrinone (CAS number 78415-72-2), which is tested in each experiment at several concentrations to obtain an inhibition curve from which its IC50 value is calculated.

T1 sequence (P43220 24-463 L260F): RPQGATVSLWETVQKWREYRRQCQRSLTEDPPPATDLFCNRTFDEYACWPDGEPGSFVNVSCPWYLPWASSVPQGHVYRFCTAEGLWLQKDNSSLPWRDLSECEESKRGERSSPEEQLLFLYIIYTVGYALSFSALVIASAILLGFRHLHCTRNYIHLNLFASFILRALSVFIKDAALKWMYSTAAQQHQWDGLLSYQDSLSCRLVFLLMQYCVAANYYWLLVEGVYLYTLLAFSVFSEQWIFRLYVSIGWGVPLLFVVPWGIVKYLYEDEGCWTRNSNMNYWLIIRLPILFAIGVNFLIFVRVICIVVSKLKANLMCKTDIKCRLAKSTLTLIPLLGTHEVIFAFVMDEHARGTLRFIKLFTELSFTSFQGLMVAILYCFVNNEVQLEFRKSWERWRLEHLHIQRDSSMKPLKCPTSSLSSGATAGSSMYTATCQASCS
T2 sequence (P43220 24-463): as the sequence (P43220 24-463 L260F) above, with F237L counted along it
T3 sequence (Q14432 whole entry): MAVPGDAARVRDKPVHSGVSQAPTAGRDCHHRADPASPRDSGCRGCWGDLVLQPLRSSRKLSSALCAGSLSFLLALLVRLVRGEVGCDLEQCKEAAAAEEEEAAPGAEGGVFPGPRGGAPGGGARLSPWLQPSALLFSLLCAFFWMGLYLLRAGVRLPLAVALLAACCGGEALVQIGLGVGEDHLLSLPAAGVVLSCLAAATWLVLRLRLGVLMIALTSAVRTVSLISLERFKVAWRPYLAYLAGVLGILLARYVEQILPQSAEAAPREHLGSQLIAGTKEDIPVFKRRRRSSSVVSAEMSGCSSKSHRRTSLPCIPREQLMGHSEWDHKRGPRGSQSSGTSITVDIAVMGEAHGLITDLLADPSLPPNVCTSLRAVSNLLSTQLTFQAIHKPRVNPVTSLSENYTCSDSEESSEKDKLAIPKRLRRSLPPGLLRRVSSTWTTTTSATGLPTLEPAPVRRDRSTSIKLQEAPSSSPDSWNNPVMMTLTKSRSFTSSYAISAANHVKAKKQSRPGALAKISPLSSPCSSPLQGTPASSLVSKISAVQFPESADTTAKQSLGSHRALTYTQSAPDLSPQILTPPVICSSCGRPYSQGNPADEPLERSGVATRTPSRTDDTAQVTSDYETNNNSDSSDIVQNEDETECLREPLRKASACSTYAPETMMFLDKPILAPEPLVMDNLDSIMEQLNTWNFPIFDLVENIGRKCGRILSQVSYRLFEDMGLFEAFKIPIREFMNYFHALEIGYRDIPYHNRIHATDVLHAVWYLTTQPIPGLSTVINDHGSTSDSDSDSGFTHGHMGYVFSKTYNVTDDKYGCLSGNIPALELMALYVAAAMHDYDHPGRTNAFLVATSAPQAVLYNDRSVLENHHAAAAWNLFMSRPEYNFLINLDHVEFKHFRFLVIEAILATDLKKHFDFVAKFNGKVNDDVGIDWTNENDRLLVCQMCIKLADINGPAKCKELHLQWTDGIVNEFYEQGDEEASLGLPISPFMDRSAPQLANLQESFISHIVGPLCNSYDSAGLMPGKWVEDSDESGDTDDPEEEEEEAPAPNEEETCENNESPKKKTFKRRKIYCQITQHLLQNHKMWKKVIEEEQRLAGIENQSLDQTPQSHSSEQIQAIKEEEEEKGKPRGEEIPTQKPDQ

Structure (SMILES)	EC50 (human GLP-1R receptor)	EC50 [1]	IC50 [2]
COc1cc(C(=O)O)cc2c1nc(CN1CCN(c3cccc4c3O[C@@](C)(c3ccc(Cl)cn3)O4)[C@@H]3COC[C@@H]31)n2C[C@@H]1CCO1 (relative stereo) [Example 1b, 2-((4aR*,7aS*)-4-((R*)-2-(5-Chloropyridin-2-yl)-2-methylbenzo[d][1,3]dioxol-4-yl)hexahydrofuro[3,4-b]pyrazin-1(2H)-yl)methyl)-4-methoxy-1-(((S)-oxetan-2-yl)methyl)-1H-benzo[d]imidazole-6-carboxylic acid]	1.8 nM	3.1 nM	> 100000 nM
C[C@]1(c2ccc(Cl)cc2F)Oc2cccc(N3CCN(Cc4nc5c(Cl)cc(C(=O)O)cc5n4C[C@@H]4CCO4)[C@H]4COC[C@H]43)c2O1 (single isomer, unassigned) [Example 15c, 4-Chloro-2-(((4aR*,7aS*)-4-((R*)-2-(4-chloro-2-fluorophenyl)-2-methylbenzo[d][1,3]dioxol-4-yl)hexahydrofuro[3,4-b]pyrazin-1(2H)-yl)methyl)-1-(((S)-oxetan-2-yl)methyl)-1H-benzo[d]imidazole-6-carboxylic acid]	150 nM	560 nM	–
C[C@]1(c2ccc(Cl)cc2F)Oc2cccc(N3CCN(Cc4nc5c(Cl)cc(C(=O)O)cc5n4C[C@@H]4CCO4)[C@H]4COC[C@H]43)c2O1 (single isomer, unassigned) [Example 15d, 4-Chloro-2-(((4aR*,7aS*)-4-((R*)-2-(4-chloro-2-fluorophenyl)-2-methylbenzo[d][1,3]dioxol-4-yl)hexahydrofuro[3,4-b]pyrazin-1(2H)-yl)methyl)-1-(((S)-oxetan-2-yl)methyl)-1H-benzo[d]imidazole-6-carboxylic acid]	190 nM	160 nM	–
C[C@]1(c2ccc(Cl)cc2F)Oc2cccc(N3CCN(Cc4nc5c(F)cc(C(=O)O)cc5n4C[C@@H]4CCO4)[C@H]4COC[C@H]43)c2O1 (single isomer, unassigned) [Example 16b, 2-(((4aR*,7aS*)-4-((R*)-2-(4-Chloro-2-fluorophenyl)-2-methylbenzo[d][1,3]dioxol-4-yl)hexahydrofuro[3,4-b]pyrazin-1(2H)-yl)methyl)-4-fluoro-1-(((S)-oxetan-2-yl)methyl)-1H-benzo[d]imidazole-6-carboxylic acid]	120 nM	270 nM	–
C[C@]1(c2ccc(Cl)cc2F)Oc2cccc(N3CCN(Cc4nc5c(F)cc(C(=O)O)cc5n4C[C@@H]4CCO4)[C@H]4COC[C@H]43)c2O1 (single isomer, unassigned) [Example 16d, 2-(((4aR*,7aS*)-4-((R*)-2-(4-Chloro-2-fluorophenyl)-2-methylbenzo[d][1,3]dioxol-4-yl)hexahydrofuro[3,4-b]pyrazin-1(2H)-yl)methyl)-4-fluoro-1-(((S)-oxetan-2-yl)methyl)-1H-benzo[d]imidazole-6-carboxylic acid]	160 nM	270 nM	–
C[C@]1(c2ccc(Cl)cc2F)Oc2cccc(N3CCN(Cc4nc5c(Cl)cc(C(=O)O)cc5n4Cc4cocn4)[C@H]4COC[C@H]43)c2O1 (single isomer, unassigned) [Example 19]	25 nM	7.4 nM	–
C[C@]1(c2ccc(Cl)cn2)Oc2cccc(N3CCN(Cc4nc5c(Cl)cc(C(=O)O)cc5n4CC4(CC#N)CC4)[C@H]4COC[C@H]43)c2O1 (single isomer, unassigned) [Example 24]	3.1 nM	4.3 nM	–
N#Cc1ccc(COc2cccc(C3CCN(Cc4nc5ccc(C(=O)O)cc5n4C[C@@H]4CCO4)CC3)n2)c(F)c1 [Ref Comp B, reference compound]	–	–	11000 nM

Continued by falling EC50 (human GLP-1R receptor), values first:

EC50 (human GLP-1R receptor)	EC50 [1]	IC50 [2]	Structure (SMILES)
170 nM	440 nM	–	C[C@]1(c2ccc(Cl)cc2F)Oc2cccc(N3CCN(Cc4nc5c(F)cc(C(=O)O)cc5n4C[C@@H]4CCO4)[C@H]4COC[C@H]43)c2O1 (single isomer, unassigned) [Example 16c, 2-(((4aR*,7aS*)-4-((R*)-2-(4-Chloro-2-fluorophenyl)-2-methylbenzo[d][1,3]dioxol-4-yl)hexahydrofuro[3,4-b]pyrazin-1(2H)-yl)methyl)-4-fluoro-1-(((S)-oxetan-2-yl)methyl)-1H-benzo[d]imidazole-6-carboxylic acid]
170 nM	240 nM	–	C[C@]1(c2ccc(Cl)cn2)Oc2cccc(N3CCN(Cc4nc5c(F)cc(C(=O)O)cc5n4CC4(C#N)CC4)[C@H]4COC[C@H]43)c2O1 (single isomer, unassigned) [Example 22b]
150 nM	410 nM	–	C[C@]1(c2ccc(Cl)cc2F)Oc2cccc(N3CCN(Cc4nc5c(F)cc(C(=O)O)cc5n4Cc4cocn4)[C@H]4COC[C@H]43)c2O1 (single isomer, unassigned) [Example 20a]
140 nM	580 nM	–	C[C@]1(c2ccc(Cl)cn2)Oc2cccc(N3CCN(Cc4nc5c(F)cc(C(=O)O)cc5n4CC4(C#N)CC4)[C@H]4COC[C@H]43)c2O1 (single isomer, unassigned) [Example 22c]
81 nM	20 nM	–	C[C@]1(c2ccc(Cl)cn2)Oc2cccc(N3CCN(Cc4nc5c(Cl)cc(C(=O)O)cc5n4CCn4cccn4)[C@H]4COC[C@H]43)c2O1 (single isomer, unassigned) [Example 27]
77 nM	190 nM	–	C[C@]1(c2ccc(Cl)cn2)Oc2cccc(N3CCN(Cc4nc5c(Cl)cc(C(=O)O)cc5n4CC4(C#N)CC4)[C@H]4COC[C@H]43)c2O1 (single isomer, unassigned) [Example 23b]
26 nM	6.1 nM	–	Cc1nccn1CCn1c(CN2CCN(c3cccc4c3O[C@@](C)(c3ccc(Cl)cc3F)O4)[C@@H]3COC[C@@H]32)nc2c(Cl)cc(C(=O)O)cc21 (single isomer, unassigned) [Example 18]
14 nM	4.5 nM	–	Cc1nccn1CCn1c(CN2CCN(c3cccc4c3O[C@@](C)(c3ccc(Cl)cc3F)O4)[C@@H]3COC[C@@H]32)nc2c(F)cc(C(=O)O)cc21 (single isomer, unassigned) [Example 17]
7.2 nM	10 nM	–	C[C@]1(c2ccc(Cl)cc2F)Oc2cccc(N3CCN(Cc4nc5c(F)cc(C(=O)O)cc5n4Cc4cocn4)[C@H]4COC[C@H]43)c2O1 (single isomer, unassigned) [Example 20b]
3.6 nM	11 nM	–	C[C@]1(c2ccc(Cl)cn2)Oc2cccc(N3CCN(Cc4nc5ccc(C(=O)O)cc5n4CC4(C#N)CC4)[C@H]4COC[C@H]43)c2O1 (single isomer, unassigned) [Example 26]
1.2 nM	2.3 nM	–	C[C@]1(c2ccc(Cl)cc2F)Oc2cccc(N3CCN(Cc4nc5c(F)cc(C(=O)O)cc5n4C[C@@H]4CCO4)[C@H]4COC[C@H]43)c2O1 (single isomer, unassigned) [Example 16a, 2-(((4aR*,7aS*)-4-((R*)-2-(4-Chloro-2-fluorophenyl)-2-methylbenzo[d][1,3]dioxol-4-yl)hexahydrofuro[3,4-b]pyrazin-1(2H)-yl)methyl)-4-fluoro-1-(((S)-oxetan-2-yl)methyl)-1H-benzo[d]imidazole-6-carboxylic acid]
